Key:
[1] = system: BTK (217-655) error-prone mutant library; test: BTK error-prone library screening by FACS in presence of inhibitor; assay type: cell-based, human
Description: A12 polymerase, an error-prone variant of KOD polymerase, was used for amplification to generate a pool of mutants. Vector was prepared by digestion with XhoI and XbaI. PCR product and digested vector were gel extracted and drop dialyzed in ddH2O on VSWP membranes for one hour. […] Library size was estimated by colony counts from dilution series of transformed cells plated on SD-UT agar plus 100 μg/mL G418. Sanger sequencing was carried out on 15 randomly selected clones, as well as high throughput sequencing (described below) on an aliquot of the entire sample.
3×10^8 cells were washed with TBS+BSA for each library and then stained with anti-His6-FITC and anti-pY-APC for 30 minutes at 4° C. Cells were washed three times to remove unbound antibody.

[2] = system: ABL kinase error-prone mutant library; test: ABL error-prone library screening by FACS in presence of inhibitor; assay type: cell-based, human; details: inhibitor-treated cultures (25 μM)
Description: 5×10^7 cells were washed with TBS+BSA then stained with anti-His6-FITC and anti-pY-PE for 30 minutes at 4° C. Cells were washed three times to remove unbound antibody. Wild-type ABL with and without inhibitor was used to determine the location of the sorting gates. PE+/FITC+ cells were sorted and re-sorted, then transferred to SD-UT medium for growth at 30° C. until dense, 1-2 days depending on number of cells collected (FIG. 1B).

SMILES: CC#CC(=O)N1CCC[C@H]1c1nc(-c2ccc(C(=O)Nc3ccccn3)cc2)c2c(N)nccn12 [Acalabrutinib]
- fraction of APC-positive cells ([1]; 1000 μM Acalabrutinib treated cultures, pre-sort round 3 pool): 23.8%
- fraction of APC-positive cells ([1]; 1000 μM Acalabrutinib treated cultures, unsorted pool): 1.63%

SMILES: C=CC(=O)N1CCC[C@@H](n2nc(-c3ccc(Oc4ccccc4)cc3)c3c(N)ncnc32)C1 [Ibrutinib]
- fraction of APC-positive cells ([1]; 400 nM Ibrutinib-treated cultures, pre-sort round 3): 40.60%
- fraction of APC-positive cells ([1]; 400 nM Ibrutinib-treated cultures, unsorted pool): 0.7%

SMILES: Cc1ccc(C(=O)Nc2ccc(CN3CCN(C)CC3)c(C(F)(F)F)c2)cc1C#Cc1cnc2cccnn12 [Ponatinib]
- fraction of PE-positive cells ([2]; pre-sort 4 pool): 57.9%
- fraction of PE-positive cells ([2]; unsorted pool): 0.31%
